Here are results for 5 molecules from patent US11572399B2, “Long-acting GIP peptide analogues” (University of Copenhagen, priority 2017, dated 2023).

Series [1] has as its target T1, human GIP receptor (Homo sapiens, UniProt P48546).
T1 construct: host or cells: COS-7, transient transfection (calcium phosphate), cDNA in pCMV-Script
T1 sequence (P48546 22-466): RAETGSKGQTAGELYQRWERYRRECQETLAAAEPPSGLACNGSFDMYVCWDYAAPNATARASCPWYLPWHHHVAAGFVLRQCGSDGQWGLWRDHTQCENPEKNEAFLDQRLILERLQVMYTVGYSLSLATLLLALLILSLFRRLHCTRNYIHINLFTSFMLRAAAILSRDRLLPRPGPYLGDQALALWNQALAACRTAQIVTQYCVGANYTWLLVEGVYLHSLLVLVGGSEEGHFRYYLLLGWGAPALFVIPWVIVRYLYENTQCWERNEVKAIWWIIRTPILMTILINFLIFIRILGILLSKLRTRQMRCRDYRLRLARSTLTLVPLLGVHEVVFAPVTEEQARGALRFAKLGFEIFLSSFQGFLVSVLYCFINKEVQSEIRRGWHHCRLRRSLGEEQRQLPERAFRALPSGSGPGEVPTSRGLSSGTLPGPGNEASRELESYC
Briefly: cAMP accumulation assay, antagonism of a GIP-mediated cAMP response (50-80% of max). It is filed as cell-based. The following applies: for Fold change of IC50 versus GIP(5-30)NH2: fold change of IC50 from GIP(5-30)NH2. As for the experimental part:
The day after, the cells were washed twice with Hepes buffered saline (HBS) buffer and incubated with HBS and 1 mM 3-isobutyl-1-methylxanthine (IBMX) for 30 min at 37° C. […] The HitHunter™ cAMP XS assay (DiscoveRx) was carried out according to the manufacturer's instructions.
A general note: Cyclic AMP is a second messenger, typically raised through Gs and lowered through Gi signalling.

For series [2], the target named is T1, human GIP receptor. In words: cAMP accumulation assay, agonism (ligand alone). It is filed as cell-based. The following applies: Table 1; for Emax: COS-7, intrinsic cAMP activity, COS-7 cells; for EC50: given as log EC50 (negative sign), read-out: cAMP agonism EC50 (log) (converted).
The target of series [3] is T1, human GIP receptor. Briefly: 125I-human GIP competition binding assay, in the presence and absence of 2% HSA.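 For all read-outs here: nonspecific binding taken as radioligand bound to untransfected cells, IC50 obtained from nonlinear regression fits.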 The following applies: for Fold change HSA (2%)/Casein (0.1%): IC50 (plus HSA)/IC50 (minus HSA); for Ki: absence of HSA; for Binding (+/−HSA) Fold: fold change +HSA/−HSA.
Setting [4] is: transiently transfected COS-7 cells, Table 1 and text, read-out: cAMP antagonism nM (IC50, antagonistic potency).
Where [5] appears, read: binding in 0.1% casein (absence of HSA), log value, read-out: logIC50 0.1% casein (converted).
[6] abbreviates: binding in presence of 2% HSA, read-out: logIC50 2% HSA (converted).
Where [7] appears, read: heterologous competition binding, transiently transfected COS-7 cells expressing the human GIP receptor, read-out: Binding.
Where [8] appears, read: antagonism of GIP-mediated cAMP response, COS-7 cells, read-out: cAMP accumulation IC50.

The structures appear in SMILES notation. Values joined by “and” are separate entries in the source; they are usually repeats but may differ in a detail not shown here. Identical values can stand only once. Peptide text beside a SMILES is read from it. * marks the point of attachment. C16 diacid = O=C(O)CCCCCCCCCCCCCCC(=O)*

For `CC[C@H](C)[C@H](NC(=O)[C@H](CO)NC(=O)[C@H](Cc1ccc(O)cc1)NC(=O)[C@H](CC(=O)O)NC(=O)[C@H](CO)NC(=O)[C@@H](NC(=O)[C@H](Cc1ccccc1)NC(=O)[C@@H](N)[C@@H](C)O)[C@@H](C)CC)C(=O)N[C@@H](C)C(=O)N[C@@H](CCSC)C(=O)N[C@@H](CC(=O)O)C(=O)N[C@@H](CCCCN)C(=O)N[C@H](C(=O)N[C@@H](Cc1c[nH]cn1)C(=O)N[C@@H](CCC(N)=O)C(=O)N[C@@H](CCC(N)=O)C(=O)N[C@@H](CC(=O)O)C(=O)N[C@@H](Cc1ccccc1)C(=O)N[C@H](C(=O)N[C@@H](CC(N)=O)C(=O)N[C@@H](Cc1c[nH]c2ccccc12)C(=O)N[C@@H](CC(C)C)C(=O)N[C@@H](CC(C)C)C(=O)N[C@@H](CCCCNC(=O)CCCCCCCCCCCCCCC(=O)O)C(=O)N[C@@H](CCC(N)=O)C(=O)N[C@@H](CCCCN)C(N)=O)C(C)C)[C@@H](C)CC` [AT188, [hGIP(5-30)NH2[A28K]-C16diacid/28]] (H-TFISDYSIAMDKIHQQDFVNWLLK(C16 diacid)QK-NH2; N-terminus assumed), the “Fold change of IC50 versus GIP(5-30)NH2” value at human GIP receptor [1] is 6.8. Besides, the IC50 at human GIP receptor [1] (setting [4]) came to 152 nM. Besides, on human GIP receptor [2], the Emax stood at 10%; the EC50 was 100 nM and 158 nM. For the same molecule, at human GIP receptor [3], the “Fold change HSA (2%)/Casein (0.1%)” value stood at 0.0, the Ki is 144 nM and the “Binding (+/−HSA) Fold” value worked out at 3.2. Also, the IC50 at human GIP receptor [3] (heterologous competition binding, transiently transfected COS-7 cells expressing the human GIP receptor, log value of the nM column, read-out: Binding log (converted)) is 200 nM and 183 nM.
For `CC[C@H](C)[C@H](NC(=O)[C@H](CO)NC(=O)[C@H](Cc1ccc(O)cc1)NC(=O)[C@H](CC(=O)O)NC(=O)[C@H](CO)NC(=O)[C@@H](NC(=O)[C@H](Cc1ccccc1)NC(=O)[C@@H](N)[C@@H](C)O)[C@@H](C)CC)C(=O)N[C@@H](C)C(=O)N[C@@H](CCSC)C(=O)N[C@@H](CC(=O)O)C(=O)N[C@@H](CCCCNC(=O)CCCCCCCCCCCCCCC(=O)O)C(=O)N[C@H](C(=O)N[C@@H](Cc1c[nH]cn1)C(=O)N[C@@H](CCC(N)=O)C(=O)N[C@@H](CCC(N)=O)C(=O)N[C@@H](CC(=O)O)C(=O)N[C@@H](Cc1ccccc1)C(=O)N[C@H](C(=O)N[C@@H](CC(N)=O)C(=O)N[C@@H](Cc1c[nH]c2ccccc12)C(=O)N[C@@H](CC(C)C)C(=O)N[C@@H](CC(C)C)C(=O)N[C@@H](C)C(=O)N[C@@H](CCC(N)=O)C(=O)N[C@@H](CCCCN)C(N)=O)C(C)C)[C@@H](C)CC` [AT140, [hGIP(5-30)NH2—C16diacid/16]], the “Fold change of IC50 versus GIP(5-30)NH2” value on human GIP receptor [1] stood at 7.4. The IC50 on human GIP receptor [1] (setting [4]) was 205 nM; on human GIP receptor [3] (setting [5]), 2000 nM; on human GIP receptor [3] (setting [6]) it was 3280 nM; on human GIP receptor [3] (setting [7]), 2160 nM. Further, the Emax at human GIP receptor [2] was determined as 0%. Further, the “Fold change HSA (2%)/Casein (0.1%)” value at human GIP receptor [3] worked out at 1.5. At human GIP receptor [3], this molecule showed an inhibition constant (Ki) of 2160 nM. Also, on human GIP receptor [3], the “Binding (+/−HSA) Fold” value turned out to be 1.5.
Take `CC[C@H](C)[C@H](NC(=O)[C@H](CO)NC(=O)[C@H](Cc1ccc(O)cc1)NC(=O)[C@H](CC(=O)O)NC(=O)[C@H](CO)NC(=O)[C@@H](NC(=O)[C@H](Cc1ccccc1)NC(=O)[C@@H](N)[C@@H](C)O)[C@@H](C)CC)C(=O)N[C@@H](C)C(=O)N[C@@H](CCSC)C(=O)N[C@@H](CC(=O)O)C(=O)N[C@@H](CCCCN)C(=O)N[C@H](C(=O)N[C@@H](Cc1c[nH]cn1)C(=O)N[C@@H](CCC(N)=O)C(=O)N[C@@H](CCC(N)=O)C(=O)N[C@@H](CC(=O)O)C(=O)N[C@@H](CCCCNC(=O)CCCCCCCCCCCCCCC(=O)O)C(=O)N[C@H](C(=O)N[C@@H](CC(N)=O)C(=O)N[C@@H](Cc1c[nH]c2ccccc12)C(=O)N[C@@H](CC(C)C)C(=O)N[C@@H](CC(C)C)C(=O)N[C@@H](C)C(=O)N[C@@H](CCC(N)=O)C(=O)N[C@@H](CCCCN)C(N)=O)C(C)C)[C@@H](C)CC` [AT182, [hGIP(5-30)NH2[F22K]-C16diacid/22]] (H-TFISDYSIAMDKIHQQDK(C16 diacid)VNWLLAQK-NH2; N-terminus assumed): the IC50 on human GIP receptor [1] (setting [8]) came to 603 nM. The “Fold change of IC50 versus GIP(5-30)NH2” value on human GIP receptor [1] was found to be 21.9. On human GIP receptor [1] (setting [4]), the IC50 turned out to be 634 nM. Also, at human GIP receptor [2], the Emax amounted to 13% and the EC50 was 1000 nM. Besides, on human GIP receptor [3], the “Fold change HSA (2%)/Casein (0.1%)” value came to 3.0 and the “Binding (+/−HSA) Fold” value was 1.4. In addition, on human GIP receptor [3] (setting [7]), the IC50 was 962 nM.
Take `CC[C@H](C)[C@H](NC(=O)[C@H](CO)NC(=O)[C@H](Cc1ccc(O)cc1)NC(=O)[C@H](CC(=O)O)NC(=O)[C@H](CO)NC(=O)[C@@H](NC(=O)[C@H](Cc1ccccc1)NC(=O)[C@@H](N)[C@@H](C)O)[C@@H](C)CC)C(=O)N[C@@H](C)C(=O)N[C@@H](CCSC)C(=O)N[C@@H](CC(=O)O)C(=O)N[C@@H](CCCCN)C(=O)N[C@@H](CCCCNC(=O)CCCCCCCCCCCCCCC(=O)O)C(=O)N[C@@H](Cc1c[nH]cn1)C(=O)N[C@@H](CCC(N)=O)C(=O)N[C@@H](CCC(N)=O)C(=O)N[C@@H](CC(=O)O)C(=O)N[C@@H](Cc1ccccc1)C(=O)N[C@H](C(=O)N[C@@H](CC(N)=O)C(=O)N[C@@H](Cc1c[nH]c2ccccc12)C(=O)N[C@@H](CC(C)C)C(=O)N[C@@H](CC(C)C)C(=O)N[C@@H](C)C(=O)N[C@@H](CCC(N)=O)C(=O)N[C@@H](CCCCN)C(N)=O)C(C)C` [AT178, [hGIP(5-30)NH2[I17K]-C16diacid/17]] (H-TFISDYSIAMDKK(C16 diacid)HQQDFVNWLLAQK-NH2; N-terminus assumed): the IC50 at human GIP receptor [1] (setting [8]) was 27.5 nM; at human GIP receptor [1] (setting [4]), 33 nM; at human GIP receptor [3] (setting [5]), 63.1 nM; on human GIP receptor [3] (setting [7]), 66 nM. For the same molecule, the “Fold change of IC50 versus GIP(5-30)NH2” value on human GIP receptor [1] was determined as 1. Moreover, the Emax on human GIP receptor [2] was determined as 0%. On human GIP receptor [3], the “Fold change HSA (2%)/Casein (0.1%)” value stood at 3.0. Moreover, the “Binding (+/−HSA) Fold” value at human GIP receptor [3] was 4.5.
Regarding `CCCCCCCCCCCCCC(=O)NCCCC[C@H](NC(=O)[C@H](CC(=O)O)NC(=O)[C@H](CCSC)NC(=O)[C@H](C)NC(=O)[C@@H](NC(=O)[C@H](CO)NC(=O)[C@H](Cc1ccc(O)cc1)NC(=O)[C@H](CC(=O)O)NC(=O)[C@H](CO)NC(=O)[C@@H](NC(=O)[C@H](Cc1ccccc1)NC(=O)[C@@H](NC(=O)CNC(=O)[C@@H](N)CCC(=O)O)[C@@H](C)O)[C@@H](C)CC)[C@@H](C)CC)C(=O)N[C@H](C(=O)N[C@@H](Cc1c[nH]cn1)C(=O)N[C@@H](CCC(N)=O)C(=O)N[C@@H](CCC(N)=O)C(=O)N[C@@H](CC(=O)O)C(=O)N[C@@H](Cc1ccccc1)C(=O)N[C@H](C(=O)N[C@@H](CC(N)=O)C(=O)N[C@@H](Cc1c[nH]c2ccccc12)C(=O)N[C@@H](CC(C)C)C(=O)N[C@@H](CC(C)C)C(=O)N[C@@H](C)C(=O)N[C@@H](CCC(N)=O)C(=O)N[C@@H](CCCCN)C(N)=O)C(C)C)[C@@H](C)CC` [AT111, [hGIP(3-30)NH2—C14/16]], on human GIP receptor [1] (fold vs GIP(3-30)NH2, Table 3b), the “cAMP - antagonisme fold (paired)” value came to 3.3 fold. For the same molecule, the IC50 was 25.1 nM at human GIP receptor [1] (given as log IC50 (negative sign), transiently transfected COS-7 cells, Table 1, read-out: cAMP antagonism log (converted)); 22 nM on human GIP receptor [1] (setting [4]); 407 nM on human GIP receptor [3] (0.1% casein, no HSA, Table 3b, read-out: Binding logIC50 0.1% casein (converted)); 2090 nM at human GIP receptor [3] (2% HSA, Table 3b, read-out: Binding logIC50 2% HSA (converted)); 261 nM at human GIP receptor [3] (Table 3b, initial data, read-out: Binding IC50); 2090 nM on human GIP receptor [3] (setting [6]). Besides, on human GIP receptor [3] (setting [7]), the IC50 worked out at 261 nM. Further, the Emax at human GIP receptor [2] is 0%. Moreover, on human GIP receptor [3], the “Fold change HSA (2%)/Casein (0.1%)” value is 5.1. The “Binding fold (paired)” value at human GIP receptor [3] (fold decrease in affinity compared to GIP(3-30)NH2, Table 3b) came out at 31 fold. In addition, at human GIP receptor [3] (presence vs absence of 2% HSA, proxy for albumin binding), the “Fold change in affinity, IC50 (plus HSA)/IC50 (minus HSA)” value was 5.1 fold.

Broadly, the Emax is the maximal effect, on the per cent scale that the assay sets. The EC50 is the concentration at which the effect is half-maximal. What is called Ki is a dissociation constant, usually derived from enzyme kinetics or from competition with a known ligand. High values mean a looser hold on the target, low ones a stronger hold on the target.
